{"source": "patent US20040248209A1", "about": "“Use of g protein-coupled receptor protein” (priority 2001, published 2004)", "assay_type_in_all_cases": "cell-based", "key": {"H7TMB56 [1]": {"target": "T1, H7TMB56 (Homo sapiens, UniProt Q96LA9)", "T1 construct": "expressed in transfected cells", "T1 sequence (Q96LA9 whole entry)": "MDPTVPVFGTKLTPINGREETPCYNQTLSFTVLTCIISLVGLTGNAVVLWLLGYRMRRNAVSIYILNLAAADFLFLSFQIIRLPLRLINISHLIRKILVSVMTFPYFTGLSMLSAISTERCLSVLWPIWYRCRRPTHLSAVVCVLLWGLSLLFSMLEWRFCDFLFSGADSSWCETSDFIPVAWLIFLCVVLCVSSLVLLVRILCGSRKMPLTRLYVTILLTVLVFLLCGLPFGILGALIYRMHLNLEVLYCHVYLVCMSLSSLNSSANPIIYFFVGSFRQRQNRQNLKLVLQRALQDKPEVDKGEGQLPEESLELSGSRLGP", "test": "CRE promoter luciferase reporter gene assay in HEK293 cells transiently expressing H7TMB56", "details": "HEK293 cells bearing the H7TMB56 gene (SEQ ID NO: 2) versus other receptor control; 2×10^−4 to 10^−5 M; 4 hours; FIGS. 5 to 7", "description": "The H7TMB56-specific stimulating activity by the isoprenoid-related substances was detected using as an indicator the expression level of reporter gene product (luciferase) produced by expression induction of CRE promoter.\nHEK293 cells were suspended in growth medium (DMEM (Dulbecco's Modified Eagle Medium) (Gibco BRL) supplemented with 10% fetal bovine serum (Gibco BRL)) and plated on a 96-well plate of black well (Beckton-Dickinson, Inc.) coated with collagen in 1×10^5 cells/well. […]\nThe transfected HEK293 cells were washed with an assay buffer (DMEM supplemented with 0.1 % bovine serum albumin), and commercially available compounds containing farnesyl pyrophosphate (Sigma) and geranylgeranyl pyrophosphate (Sigma) diluted with the assay buffer were added to the cells, respectively, in 2×10^−4 to 10^−5 M, followed by incubation at 37° C. for 4 hours in 5% CO2. After the supernatant was discarded, 50 μl of PicaGene LT2.0 (Toyo Ink Mfg. Co., Ltd.) was added as a substrate for assaying the luciferase activity and a luminescence level of the luciferase was measured on a plate reader (ARVO sx Multi-Label Counter, Wallac, Inc.)."}, "H7TMB56 [2]": {"target": "T1, H7TMB56", "test": "intracellular cAMP production promoting activity in CHO cells stably expressing H7TMB56 (clone 22) versus mock cells", "details": "for intracellular cAMP production promoting activity, dose dependency: CHO cell clone highly expressing H7TMB56, FIG. 13; for agonist activity to H7TMB56 (cAMP production), specificity and dose dependency: CHO clone 22 versus mock cells, FIGS. 8 and 9; for cAMP production promoting activity (specific agonist activity): dose of 10 μM, H7TMB56 CHO cells (FIG. 10) versus mock cells (FIG. 11)", "procedure": "The same expression vector as used in EXAMPLE 1 was transfected to CHO dhfr^− cells using Gene Transfer (Wako Pure Chemical Industries, Ltd.), which was cultured in nucleic acid-free medium to select transformants. […] The intracellular cAMP level was assayed using cAMP Screen Kit (Applied Biosystems, Inc.). […] Furthermore, the cAMP production promoting activities on H7TMB56 (FIG. 10) and mock cells (FIG. 11) were assayed with respect to various isoprenoid-related substances in a dose of 10 μM (1: isopentenyl pyrophosphate, 2: dimethylallyl pyrophosphate, 3: geranyl pyrophosphate, 4: farnesyl pyrophosphate, 5: geranylgeranyl pyrophosphate, 6: geraniol, 7: farnesol, 8: geranylgeraniol, 9: trans, trans-farnesol, 10: trans, trans-farnesyl bromide, 11: geranyl acetone, 12: geranyl acetate, 13: geranylamine and 14: geranyl chloride). As a result, the agonist activity specific to geranyl pyrophosphate was detected as well, in addition to farnesyl pyrophosphate and geranylgeranyl pyrophosphate (FIG. 10).\nIn a manner similar to EXAMPLE 2, the intracellular cAMP production promoting activity was assayed on 5 isoprenoid-related substances."}, "H7TMB56 [3]": {"target": "T1, H7TMB56", "test": "internalization of H7TMB56-GFP fused protein in CHO cells, confocal microscope", "details": "10^−6 M added to the medium", "description": "An expression plasmid was constructed to express a fused protein of Green Fluorescent Protein (GFP) cDNA isolated from jelly fish Auquorea victoria, fused to H7TMB56 at the C-terminus to fit the translation frame. In this case, a fragment excised out of GFP expression vector pQBI25 (Takara Shuzo Co., Ltd.) was used as GFP cDNA. In H7TMB56, its termination codon was modified by PCR to recognition sequence with restriction enzyme NheI, and the GFP fragment was ligated thereto, which was inserted into the expression vector pAKKO-111H described in EXAMPLE 1. The thus obtained plasmid of the H7TMB56 and GFP -fused protein expression vector was transfected to CHO cells by the following procedure. CHO cells were suspended in a growth medium [DMEM (Dulbecco's Modified Eagle Medium) (GIBCO BRL, Inc.) supplemented with 10% fetal bovine serum, and plated on a Lab-Tekii cover glass chamber with 4 chambers (Nalgen Nunc, Inc.) in a concentration of 0.6×10^5 cells/chamber. After incubation overnight at 37° C. in 5% CO2, transfection was performed. For transfection, Lipofectamine™ 2000 Reagent (GIBCO BRL, Inc., Inc.) was used. First, 2 μl of Lipofectamine™ 2000 Reagent was mixed with 50 μl of OPTI-MEM-I (GIBCO BRL, Inc.). […]"}, "H7TMB56 [4]": {"target": "T1, H7TMB56", "test": "activation (phosphorylation) of p44/42 MAP kinase in H7TMB56 expression CHO cells versus mock cells, western blotting", "details": "0.1 μM, 0, 5, 10 minutes, FIG. 14", "procedure": "H7TMB56 expression CHO cells and mock cells were plated on a 6-well plate in 3×10^5 cells/well, followed by incubation overnight. In order to make serum free, the medium was replaced by nucleic acid-free α-MEM medium supplemented with 0.1% BSA and incubation was further continued overnight. Immediately before the assay, pre-incubation was again carried out for 2 hours. After 0.1 μM of farnesyl pyrophosphate was added to the medium to initiate the treatment, the medium was removed by suction at regular time intervals and then a sample buffer for SDS-PAGE was added to terminate the reaction. SDS-PAGE was performed in a conventional manner to transfer the protein onto a nitrocellulose filter. Thereafter, phosphorylated p44/42 MAP kinase was detected following the instructions described in the manual of PhosphoPlus p44/42 MAPK (Thr202/Tyr204) Antibody Kit (Cell Signaling, Inc.)."}}, "data": [{"smiles": "CC(C)=CCC/C(C)=C/CC/C(C)=C/COP(=O)(O)OP(=O)(O)O", "note": "[farnesyl pyrophosphate]", "values": [{"measurement": "luciferase activity (expression level of reporter gene product by CRE promoter)", "setting": "H7TMB56 [1]", "result": "increased"}, {"measurement": "intracellular cAMP production promoting activity, dose dependency", "setting": "H7TMB56 [2]", "result": "promoted the production of cAMP dose-dependently"}, {"measurement": "agonist activity to H7TMB56 (cAMP production), specificity and dose dependency", "setting": "H7TMB56 [2]", "result": "confirmed the specificity in the agonist activities"}, {"measurement": "cAMP production promoting activity (specific agonist activity)", "setting": "H7TMB56 [2]", "result": "detected"}, {"measurement": "internalization of H7TMB56-GFP from cell membrane to cytoplasm", "setting": "H7TMB56 [3]", "result": "internalization occurred"}, {"measurement": "phosphorylation of p44/42 MAP kinase", "setting": "H7TMB56 [4]", "result": "phosphorylation of MAP kinase was detected"}]}, {"smiles": "CC(C)=CCC/C(C)=C/COP(=O)(O)OP(=O)(O)O", "note": "[geranyl pyrophosphate]", "values": [{"measurement": "intracellular cAMP production promoting activity, dose dependency", "setting": "H7TMB56 [2]", "result": "promoted the production of cAMP dose-dependently"}, {"measurement": "cAMP production promoting activity (specific agonist activity)", "setting": "H7TMB56 [2]", "result": "detected"}]}, {"smiles": "CC(C)=CCC/C(C)=C/CC/C(C)=C/CC/C(C)=C/COP(=O)(O)OP(=O)(O)O", "note": "[geranylgeranyl pyrophosphate]", "values": [{"measurement": "luciferase activity (expression level of reporter gene product by CRE promoter)", "setting": "H7TMB56 [1]", "result": "increased"}, {"measurement": "intracellular cAMP production promoting activity, dose dependency", "setting": "H7TMB56 [2]", "result": "promoted the production of cAMP dose-dependently"}, {"measurement": "agonist activity to H7TMB56 (cAMP production), specificity and dose dependency", "setting": "H7TMB56 [2]", "result": "confirmed the specificity in the agonist activities"}, {"measurement": "cAMP production promoting activity (specific agonist activity)", "setting": "H7TMB56 [2]", "result": "detected"}]}]}
